# Non-standard residues stand in square brackets, D forms with d. Residues, ends and D or L forms follow the SMILES beside them.
# Key:
# [1] = test system: MOLM-13, MV-411, ML-2 and HL-60 cells; test: Cell viability of AML cell lines; type: cell-based, human; conditions: 6 days, 20 μM TG1, TG2 or TG3, 10 and 20 μM MYBMIM, peptide replacement every 48 h, compared to untreated control
# Description: (§1) Cells were resuspended and plated at a concentration of 2 × 10^5 cells in 200 μl in 96-well tissue culture plates. Media with peptides was replaced every 48 h. To assess the number of viable cells, cells were resuspended in PBS and 10 µl of suspension was mixed in a 1:1 ratio with 0.4% Trypan Blue (Thermo Fisher) and counted using a hemacytometer (Hausser Scientific, Horsham, PA, USA). To assess viability using an ATP-based assay, cell viability was assessed using the CellTiter-Glo Luminescent Viability assay, according to the manufacturer’s instructions (Promega). Luminescence was recorded using the Infinite M1000Pro plate reader using integration time of 250 ms (Tecan).
# MOLM-13 cells = test: RNA-seq transcriptome profiling; type: cell-based, human; conditions: MOLM13 cells, 20 µM, 6 h
# Description: Reads were quality and adapter trimmed using “trim_galore” before aligning to human assembly hg19 with STAR v2.5 using the default parameters. Coverage and post-alignment quality were assessed using the Picard tool CollectRNASeqMetrics (http://broadinstitute.github.io/picard/). Read count tables were created using HTSeq v0.6.1. Normalization and expression dynamics were evaluated with DESeq2 using the default parameters.
# MV-411 cells [2] = test: Growth and survival of MV-411 cells with ectopic BCL2 (MIG-BCL2) or empty MIG vector; type: cell-based, human; conditions: 20 μM, p = 0.003
# Description: as §1
# The MIG-BCL2 vector was packaged using pUMVc and pCMV-VSVG vectors in HEK 293T cells and the FuGENE 6 transfection reagent, according to manufacturer’s instructions (Promega). Virus supernatant was collected at 48 and 72 h post transfection, pooled, filtered and stored at −80 °C. Cells were transduced with virus particles at a multiplicity of infection of 1 by spin inoculation for 90 min at 3500 rpm at 35 °C in the presence of 8 μg/ml hexadimethrine bromide. Two days after transduction, cells were isolated using fluorescence-activated cell sorting (FACSAria III, BD Bioscience, San Jose, CA, USA).
# CBP KIX domain = target: T1, CBP KIX domain (Mus musculus, UniProt P45481); test: Microscale thermophoresis binding of FITC-conjugated peptides to purified recombinant CBP KIX domain; conditions: 50 mM sodium phosphate, 150 mM NaCl, 0.01% NP-40, pH 5.5, room temperature, ± standard error mean of three biological replicates
# T1 construct: Bacterial expression pGEX-KIX vector encoding the KIX domain of CBP; GST (N, cleaved yes); made in house; host or cells: E. coli BL21(DE3)
# T1 sequence (P45481 586-665 limits assumed): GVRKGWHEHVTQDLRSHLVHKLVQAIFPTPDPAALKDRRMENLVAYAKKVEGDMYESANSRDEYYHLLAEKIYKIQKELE
# Description: BL21(DE3) cells (Invitrogen) transformed with pGEX-KIX plasmid were induced at 37 °C with isopropyl β-D-1-thiogalactopyranoside for 3 h. Cells were lysed in 50 mM Tris–HCl pH 7.3, 150 mM NaCl, 0.1% Tween-20, 1 mM DTT, 5 mM EDTA, supplemented with protease inhibitors described above and sonicated for ten minutes (15 s on, 15 s off, 40% amplitude) using the Misonix probe sonicator (Qsonica, Newtown, CT). Lysate was cleared by centrifugation for 1 h at 21,800 × g at 4 °C. Cleared lysate was incubated with 4 ml glutathione agarose resin slurry (GoldBio) for 1 h at 4 °C to capture GST-KIX. Resin was washed four times with 50 mM Tris–HCl pH 7.4, 150 mM NaCl. KIX domain was cleaved from GST by incubation of resin-bound GST-KIX with 160 U thrombin (GE Healthcare) overnight at room temperature. Resin was centrifuged at 500 × g for 5 min. […] Cleaved KIX was purified using a linear gradient of 50 mM to 1 M NaCl by cation exchange chromatography using MonoS 5/50 GL column (GE Healthcare). […] Binding of purified recombinant KIX with FITC-conjugated peptides was measured using Monolith NT.115 (NanoTemper Technologies). Assays were conducted in 50 mM sodium phosphate, 150 mM NaCl, 0.01% NP-40, pH 5.5. […] MST measurements were recorded at room temperature for 10 s per capillary using fixed IR-laser power of 80% and LED excitation power of 40–50%.
# MV-411 and MOLM-13 cells = test: qRT-PCR of BCL2 mRNA expression; type: cell-based, human; conditions: 20 μM, 6 h
# Description: RNA was isolated using Trizol reagent according to the manufacturer’s instructions (Life Technologies). Complementary DNA was synthesized using the SuperScript III First-Strand Synthesis system according to the manufacturer’s instructions (Invitrogen). Quantitative real-time PCR was performed using the KAPA SYBR FAST PCR polymerase with 20 ng template and 200 nM primers, according to the manufacturer’s instructions (Kapa Biosystems, Wilmington, MA, USA). PCR primers are listed in Supplementary Table 4. Ct values were calculated using ROX normalization using the ViiA 7 software (Applied Biosystems).
# MV-411 cells [3] = test: MYB ChIP-seq; type: cell-based, human; conditions: 20 µM, 6 h, 3 biological replicates
# Description: ChIP was performed as previously described. Briefly, cells were fixed in 1% formalin in phosphate-buffered saline (PBS) for 10 minutes at room temperature. Glycine (125 mM final concentration) and Tris-HCl pH 8 (100 mM final concentration) were added to the cells and cells were washed twice in ice-cold PBS and resuspended in sodium dodecyl sulfate (SDS) lysis buffer (1% SDS, 10 mM EDTA, 50 mM Tris–HCl, pH 8.1). Lysates were sonicated using the Covaris S220 adaptive focused sonicator to obtain 100–500 bp chromatin fragments (Covaris, Woburn, CA). Lysates containing sheared chromatin fragments were resuspended in 0.01% SDS, 1.1% Triton-X100, 1.2 mM EDTA, 16.7 mM Tris–HCl, pH 8.1,167 mM NaCl. Lysates and antibody-coupled beads were incubated over night at 4 °C. […] Libraries were sequenced on the Illumina HiSeq 2500 instruments, with 30 million 2 × 50 bp paired reads.
# For ChIP-seq analysis, reads were quality and adapter trimmed using ‘trim_galore’ before aligning to human genome assembly hg19 with bwa mem using the default parameters. Aligned reads with the same start position and orientation were collapsed to a single read before subsequent analysis. Density profiles were created by extending each read to the average library fragment size and then computing density using the BEDTools suite. Enriched regions were discovered using MACS 2.0 and scored against matched input libraries. […]
smiles,measurement,setting,value
CC[C@@H](C)[C@@H](NC(=O)[C@@H](CCCCN)NC(=O)[C@@H](CCC(=O)O)NC(=O)[C@@H](CC(C)C)NC(=O)[C@@H](CCC(=O)O)NC(=O)[C@@H](CC(C)C)NC(=O)[C@@H](CC(C)C)NC(=O)CNC(=O)[C@@H](CCSC)NC(=O)[C@@H](CO)NC(=O)[C@H](NC(=O)[C@@H](CCC(=O)O)NC(=O)[C@@H](CC(N)=O)NC(=O)CNC(=O)[C@@H](CC(C)C)NC(=O)[C@@H](CCCCN)NC(C)=O)[C@H](C)O)C(=O)NCC(=O)N[C@H](CCCCN)C(=O)NCC(=O)NCC(=O)N[C@H](CCCNC(=N)N)C(=O)N[C@H](CCCNC(=N)N)C(=O)N[C@H](CCCNC(=N)N)C(=O)N[C@H](CCC(N)=O)C(=O)N[C@H](CCCNC(=N)N)C(=O)N[C@H](CCCNC(=N)N)C(=O)N[C@H](CCCCN)C(=O)N[C@H](CCCCN)C(=O)N[C@H](CCCNC(=N)N)C(=O)NCC(=O)N[C@H](Cc1ccc(O)cc1)C(N)=O [TG3] (Ac-[dK][dL]G[dN][dE][dT][dS][dM]G[dL][dL][dE][dL][dE][dK][dI]G[dK]GG[dR][dR][dR][dQ][dR][dR][dK][dK][dR]G[dY]-NH2),Growth of AML cell lines,[1],inactive
same,Changes in gene expression as compared to mock-treated cells,MOLM-13 cells,no significant changes in gene expression
same,Cell growth and survival of mock-treated and MIG empty vector control transduced MV-411 cells,MV-411 cells [2],inactive
same,Kd,CBP KIX domain,113 ± 36.6 µM
same,BCL2 expression downregulation,MV-411 and MOLM-13 cells,not
same,MYB complexes bound to promoters and enhancers eliminated,MV-411 cells [3],inactive

# — article PMC5760651, “Peptidomimetic blockade of MYB in acute myeloid leukemia” (Nature Communications, 2018)
